Results on 2 compounds are retold here after patent US8765713B2, “Method for determination of sensitivity to anti-cancer agent” (Keio University, priority 2009, dated 2014).

Series [1] deals with DLD-1 cells. As to the kind of experiment: MTS assay cell viability after drug exposure, DLD-1. For orientation: Tetrazolium dyes change colour on reduction, which living cells bring about.
Method: (§2) Two human colorectal cancer cell lines (HCT116 and DLD-1) were obtained from ECACC. Cell culturing was performed by means of a φ000 mm/Tissue Culture Dish (IWAKI) with a medium (D-MEM, 2 mM glutamine, 10% fetal bovine serum) at 37° C. under 5% CO2.
(§3) Two colorectal cancer cell lines (HCT116 and DLD-1) were exposed to a drug, and 24 hours and 48 hours after drug exposure, cell viability was determined by means of an MTS assay (CellTiter96™AQueous One Solution Cell Proliferation Assay, Promega). Drug exposure conditions were as follows. 5-FU (single agent) was used at the following 11 concentrations: control (0 μM), 0.001 μM, 0.01 μM, 0.1 μM, 1 μM, 3 μM, 10 μM, 30 μM, 100 μM, 1,000 μM, and 10,000 μM. L-OHP (single agent) was used at the following 11 concentrations; control (0 μM), 0.001 μM, 0.01 μM, 0.1 μM, 0.3 μM, 1 μM, 3 μM, 10 μM, 30 μM, 100 μM, and 1,000 μM. […]
(§4) Sensitivity analysis was performed from viability data calculated from MTS assay results. The presence or absence of combined effect was determined through comparison of viability obtained by exposure to a combination with that obtained by exposure to a single agent at the same concentration as employed at the exposure to the combination.
Series [2] has as its system HCT116 cells. In words: Intracellular protein level after drug exposure by SELDI-TOF MS, HCT116. Format: cell-based, human. The conditions noted are these: 4 to 48 hours. As for the experimental part: (§1) Based on the results of (c) above, the drug concentration employed in the exposure test was determined. The 5-FU+L-OHP combination concentration was adjusted to the following four levels: 2 μ[…], and 100 μM+10 μM, the 5-FU concentration (exposure to single agent) was adjusted to 2 μM and 100 μM, and the L-OHP concentration (exposure to single agent) was adjusted to 1 μM and 10 μM. In addition, the exposure test was conducted at a drug-free concentration (control). That is, nine concentrations in total were employed. Drug exposure time was adjusted to the following five periods of time: 0 hour (just before exposure), 4 hours, 12 hours, 24 hours, and 48 hours. After completion of exposure, cell count was performed, and intracellular proteins were extracted. The medium was removed from the dish and washed thrice with ice-cooled PBS. The cells on the dish was collected by scraping with a rubber policeman. The thus-obtained cell suspension was transferred to a 1.5-mL microtube. The cell suspension was centrifuged at 4° C. and 1,200×g for 10 minutes, and the cells were recovered. After removal of the supernatant, a cell lysis buffer (9 mol/L urea, 2% CHAPS, 1 mM DTT, protease-inhibitor cocktail (Sigma)) was added in a volume of 200 μL with respect to 10,000,000 cells. The liquid was subjected to untrasonic treatment under cooling with ice. The thus-treated product was centrifuged at 4° C. and 16,000×g for 20 minutes, and the supernatant was quickly frozen with liquid nitrogen. The frozen product was stored at -80° C. before analysis. An aliquot of the supernatant was subjected to protein quantification (DC Protein Assay Kit, Bio-Rad). The protein sample was mixed with a cell lysis buffer (excluding protease inhibitor), to thereby adjust the protein concentration to 2.5 mg/mL. The liquid was further mixed with a dilution/washing buffer (pH: 4.5, 50 mM sodium acetate buffer) (hereinafter referred to simply as “buffer”), to a protein concentration of 0.5 mg/mL. The thus-prepared sample (100 μL) was applied to spots of a cation-exchange ProteinChip array (CM10, Bio-Rad) which had been conditioned in advance with the same buffer. Incubation was performed for one hour for reaction, and the chip array was washed thrice with the buffer and rinsed twice with milliQ water, followed by drying in air. Energy absorbing molecule (EAM: saturated solution of sinapinic acid in 50% ACN/0.5% TFA) (1.0 μL ([…])) was added to each spot. After the surface of the spot was dried, analysis of the ProteinChip array was performed. […] As an analyzer, ProteinChipTM Reader (Model PCS4000 Personal Edition, Bio-Rad) was used and the analysis was performed under the following conditions: mass range of 0 to 70,000 Da, focus mass of 8,000 Da, energy of 3,000 or 4,000 nJ, and 265 shots/sample. […]

Series [3] relates to DLD-1 cells. In words: Intracellular protein level after drug exposure by SELDI-TOF MS, DLD-1. Format: cell-based, human. The conditions noted are these: DLD-1, SELDI-TOF MS, 4 to 48 hours. As for the experimental part: as §1
Series [4] concerns HCT116 cells. As to the kind of experiment: MTS assay cell viability after drug exposure, HCT116.
Method: as §2, §3, §4

What is called viability is a read-out of living cells in per cent, often relative to untreated cells.

Turning to `O=c1[nH]cc(F)c(=O)[nH]1` [5-FU, Fluorouracil], the viability at 100 µM in series [1] (Homo sapiens, DLD-1, 48 h, read-out: cell viability) was roughly 49%; in series [4] (Homo sapiens, HCT-116, 48 h, read-out: cell viability), roughly 24%. Moreover, the “levels of proteins A to C, F, and H to K after exposure” value is reported as “no significant difference” in series [2] and “increase” in series [3]. The entries for the “levels of proteins D and M after exposure” value in series [2] and in series [3] were “decrease” and “no significant difference”, respectively.

Turning to `O=C1[O][Pt]2([NH][C@@H]3CCCC[C@H]3[NH]2)[O]C1=O` [L-OHP, (SP-4-2)-[(1R,2R)-cyclohexane-1,2-diamine-κN,κN′][ethanedioato(2-)-κO^1,κO^2]platinum], the cell viability entry in series [1] (DLD-1, 1 μM L-OHP, 48 hours) is “about 82%”; in series [4] (HCT116, 1 μM L-OHP, 48 hours), “about 37%”. Besides, the “levels of proteins A to C and G to K after exposure” value is reported as “no significant difference” in series [2] and “increase” in series [3]. The “levels of proteins D and M after exposure” value in series [2] is listed as “decrease”; in series [3], “no significant difference”.
